Results on five molecules are retold here after patent US7792665B2, “Method for designing a compound based on the three dimensional structure of phosphoinositide dependent protein kinase 1 (PDK1)” (Medical Research Council, priority 2002, dated 2010).

Several values for one entry are separate records, joined by “and”; a condition that tells them apart may be missing. Equal entries are not always repeated. Where no end group is shown, it is not given here. [ ]: non-standard residue; d: D form. pT = C[C@@H](OP(=O)(O)O)[C@H](N)C(=O)O

The target in assay [1] is S6K-pHM, phosphopeptide comprising the hydrophobic motif of S6K1. As to the kind of experiment: SPR (BiaCore), against PIFtide. (In general: Surface plasmon resonance follows binding to a sensor surface in real time, without labels.)
Assay [2] has the same target. Description: SPR (BiaCore), dissociation phase.
The target is the same in assay [3]. As to the kind of experiment: SPR (BiaCore), rounded value.
The target is the same in assay [4]. As to the kind of experiment: SPR (BiaCore 3000), biotinylated S6K-pHM on SA chip, GST-PDK1 injected at 2-2150 nM, steady state, apparent Kd.
The target is the same in assay [5]. As to the kind of experiment: SPR (BiaCore), against wild type PDK1.
The target is the same in assay [6]. Description: SPR (BiaCore), maximal response obtained empirically.
In the next assay the target is T1, PDK1 (Homo sapiens, UniProt O15530).
T1 sequence (O15530 1-556): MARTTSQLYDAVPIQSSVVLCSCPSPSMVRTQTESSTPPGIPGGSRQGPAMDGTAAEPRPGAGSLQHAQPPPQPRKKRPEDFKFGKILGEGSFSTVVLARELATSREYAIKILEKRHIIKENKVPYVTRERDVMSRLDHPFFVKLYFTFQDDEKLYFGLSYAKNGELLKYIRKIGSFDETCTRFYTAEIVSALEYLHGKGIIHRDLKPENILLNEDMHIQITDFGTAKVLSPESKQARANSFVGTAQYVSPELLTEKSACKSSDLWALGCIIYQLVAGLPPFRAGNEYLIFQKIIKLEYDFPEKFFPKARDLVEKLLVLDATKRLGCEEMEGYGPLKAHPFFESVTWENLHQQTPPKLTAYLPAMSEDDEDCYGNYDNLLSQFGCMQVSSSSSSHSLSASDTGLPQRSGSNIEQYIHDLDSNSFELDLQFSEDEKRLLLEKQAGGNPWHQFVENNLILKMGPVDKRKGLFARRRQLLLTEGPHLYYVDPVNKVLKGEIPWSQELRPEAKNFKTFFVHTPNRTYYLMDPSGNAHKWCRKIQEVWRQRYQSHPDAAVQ
As to the kind of experiment: PDK1 protein kinase assay with PDK1tide substrate and [γ-32P]ATP. It counts as biochemical. The settings on record: 1 μM inhibitor, 0.1 mM ATP, average of triplicate. Here is the method: (§1) Other protein kinases employed in Table 5, were assayed as described previously.
A structure-based sequence alignment of known kinase structures was obtained from, which was used to validate the sequence-based sequence alignment (Table 5).

For another assay, the target named is T2, CHK1 (Homo sapiens, UniProt O14757).
T2 sequence (O14757 1-476): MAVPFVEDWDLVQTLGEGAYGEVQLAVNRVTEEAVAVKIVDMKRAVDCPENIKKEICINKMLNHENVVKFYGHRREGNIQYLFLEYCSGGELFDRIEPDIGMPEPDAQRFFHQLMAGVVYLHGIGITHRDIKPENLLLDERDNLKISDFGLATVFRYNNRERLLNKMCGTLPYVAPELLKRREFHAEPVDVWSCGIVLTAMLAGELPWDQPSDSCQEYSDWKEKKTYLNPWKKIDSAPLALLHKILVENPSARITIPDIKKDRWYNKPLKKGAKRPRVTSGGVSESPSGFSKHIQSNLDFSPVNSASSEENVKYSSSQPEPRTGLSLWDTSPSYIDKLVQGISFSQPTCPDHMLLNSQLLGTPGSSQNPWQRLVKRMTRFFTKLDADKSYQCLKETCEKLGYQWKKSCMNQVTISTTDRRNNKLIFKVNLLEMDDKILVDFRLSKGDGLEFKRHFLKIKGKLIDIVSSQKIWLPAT
Description: Kinase panel assay, CHK1. The following applies: 1 μM inhibitor, 0.1 mM ATP, average of triplicate. The format is biochemical.

For the next assay, the system named is AMPK. Description: Kinase panel assay, AMPK. It counts as biochemical. The following applies: 1 μM inhibitor, 0.1 mM ATP, average of triplicate. As for the experimental part:
as §1

The next assay deals with PKBΔPH (Homo sapiens, UniProt P31749). As to the kind of experiment: biochemical. The following applies: read-out: percentage of kinase activity compared to control incubations, PKBΔPH. Here is the method: as §1
The target in a further assay is ROCK-II (Homo sapiens, UniProt O75116). As to the kind of experiment: Kinase panel assay, ROCK-II. It counts as biochemical. The settings on record: 1 μM inhibitor, 0.1 mM ATP, average of triplicate.
Another assay deals with MSK1 (Homo sapiens, UniProt O75582). As to the kind of experiment: Kinase panel assay, MSK1. The format is biochemical. The settings on record: 1 μM inhibitor, 0.1 mM ATP, average of triplicate.
The target of the next assay is MKK1 (Homo sapiens, UniProt Q02750). As to the kind of experiment: Kinase panel assay, MKK1. It counts as biochemical. The settings on record: 1 μM inhibitor, 0.1 mM ATP, average of triplicate.
In another assay the target is CSK (Homo sapiens, UniProt P41240). As to the kind of experiment: Kinase panel assay, CSK. The format is biochemical. The following applies: 1 μM inhibitor, 0.1 mM ATP, average of triplicate.
A further assay deals with SAPK4/p38δ (Homo sapiens, UniProt O15264). As to the kind of experiment: Kinase panel assay, SAPK4/p38δ. It counts as biochemical. The following applies: 1 μM inhibitor, 0.1 mM ATP, average of triplicate.
The next assay has as its target PRAK (Homo sapiens, UniProt Q8IW41). Description: Kinase panel assay, PRAK. It counts as biochemical. The settings on record: 1 μM inhibitor, 0.1 mM ATP, average of triplicate.
The target of another assay is MAPKAP-K1a (Homo sapiens, UniProt Q15418). As to the kind of experiment: Kinase panel assay, MAPKAP-K1a. The format is biochemical. The following applies: 1 μM inhibitor, 0.1 mM ATP, average of triplicate.
Another assay addresses SGK1 (Homo sapiens, UniProt O00141). As to the kind of experiment: Kinase panel assay, SGK1. It counts as biochemical. The following applies: 1 μM inhibitor, 0.1 mM ATP, average of triplicate.
The target of another assay is JNKSAPK1c (Homo sapiens, UniProt P45983). As to the kind of experiment: Kinase panel assay, JNKSAPK1c. The format is biochemical. The following applies: 1 μM inhibitor, 0.1 mM ATP, average of triplicate.
For another assay, the target named is SAPK2α/p38 (Homo sapiens, UniProt Q16539). Description: Kinase panel assay, SAPK2α/p38. The settings on record: 1 μM inhibitor, 0.1 mM ATP, average of triplicate. It counts as biochemical.
The target in the next assay is SAPK2β/p38β2 (Homo sapiens, UniProt Q15759). As to the kind of experiment: Kinase panel assay, SAPK2β/p38β2. The settings on record: 1 μM inhibitor, 0.1 mM ATP, average of triplicate. It counts as biochemical.
In another assay the target is CK2 (Homo sapiens, UniProt P68400). As to the kind of experiment: Kinase panel assay, CK2. It counts as biochemical. The settings on record: 1 μM inhibitor, 0.1 mM ATP, average of triplicate.
For a further assay, the system named is CK1. As to the kind of experiment: Kinase panel assay, CK1. It counts as biochemical. The settings on record: 1 μM inhibitor, 0.1 mM ATP, average of triplicate.
A further assay concerns the target NEK6 (Homo sapiens, UniProt Q9HC98). Description: Kinase panel assay, NEK6. The format is biochemical. The settings on record: 1 μM inhibitor, 0.1 mM ATP, average of triplicate.
Assay [7] deals with T3, wild type PDK1 fused through its N-terminus to glutathione S-transferase (GST-PDK1) (human, UniProt O15530 1-556).
T3 sequence: T1 sequence (O15530 1-556)
As to the kind of experiment: cell-based or functional assay.

The target of assay [8] is T3, wild type PDK1 fused through its …. As to the kind of experiment: SPR (BiaCore), biotinylated peptide on SA chip. Here is the method:
Binding was analysed in a BiaCore 3000 system (BiaCore AB, Stevenage, UK). […] 30 μl of wild type or the indicated mutant GST-PDK1 were injected at a flow rate of 30 μl/min, in buffer HBS-P (10 mM HEPES pH 7.4, 0.15M NaCl, 0.005% (by vol) polysorbate-20) supplemented with 1 mM DTT. […] Steady state binding was determined at each concentration. Dissociation of PDK1 from the phospho-peptide was monitored over a 1 min period. Regeneration of the sensor chip surface was performed with 10 μl injections of 0.05% SDS.

Assay [9] addresses GST-PDK1[K76A] (human), O15530. As to the kind of experiment: cell-based or functional assay.
In assay [10] the target is GST-PDK1[Q150A] (human), O15530. As to the kind of experiment: cell-based or functional assay.

Sequence of MSK1 (O75582 whole entry): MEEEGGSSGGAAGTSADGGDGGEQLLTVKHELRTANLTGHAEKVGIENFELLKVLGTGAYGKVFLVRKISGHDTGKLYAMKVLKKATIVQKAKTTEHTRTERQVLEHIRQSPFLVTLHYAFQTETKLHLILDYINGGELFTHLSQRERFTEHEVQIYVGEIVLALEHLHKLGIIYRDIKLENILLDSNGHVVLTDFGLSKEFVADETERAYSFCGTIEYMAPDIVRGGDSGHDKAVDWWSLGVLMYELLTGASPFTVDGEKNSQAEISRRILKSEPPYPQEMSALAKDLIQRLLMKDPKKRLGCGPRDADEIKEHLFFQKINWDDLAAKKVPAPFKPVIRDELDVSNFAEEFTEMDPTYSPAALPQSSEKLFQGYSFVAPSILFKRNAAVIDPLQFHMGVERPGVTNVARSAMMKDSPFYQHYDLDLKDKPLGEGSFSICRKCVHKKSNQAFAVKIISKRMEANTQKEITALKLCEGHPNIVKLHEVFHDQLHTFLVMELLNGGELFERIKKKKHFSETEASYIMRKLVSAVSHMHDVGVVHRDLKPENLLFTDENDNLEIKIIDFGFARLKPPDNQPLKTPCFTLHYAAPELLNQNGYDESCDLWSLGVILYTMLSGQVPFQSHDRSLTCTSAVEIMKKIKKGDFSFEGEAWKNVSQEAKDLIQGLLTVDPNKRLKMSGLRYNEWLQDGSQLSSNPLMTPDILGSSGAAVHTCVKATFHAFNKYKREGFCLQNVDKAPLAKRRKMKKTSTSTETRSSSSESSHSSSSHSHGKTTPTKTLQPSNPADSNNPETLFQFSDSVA
Sequence of CSK (P41240 whole entry, species assumed): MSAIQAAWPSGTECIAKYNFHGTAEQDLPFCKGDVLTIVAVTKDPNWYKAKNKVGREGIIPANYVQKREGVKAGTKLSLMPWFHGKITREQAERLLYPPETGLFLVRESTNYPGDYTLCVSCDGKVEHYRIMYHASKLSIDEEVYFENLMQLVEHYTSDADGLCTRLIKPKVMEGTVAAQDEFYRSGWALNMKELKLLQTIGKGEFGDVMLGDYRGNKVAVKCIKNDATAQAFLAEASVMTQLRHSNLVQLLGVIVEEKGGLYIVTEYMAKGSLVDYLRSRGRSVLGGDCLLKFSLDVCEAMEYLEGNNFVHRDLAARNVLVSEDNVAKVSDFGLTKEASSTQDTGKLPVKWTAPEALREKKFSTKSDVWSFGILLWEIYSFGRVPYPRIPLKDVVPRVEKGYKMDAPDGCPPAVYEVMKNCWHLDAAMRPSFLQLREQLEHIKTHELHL
Sequence of SAPK4/p38δ (O15264 whole entry): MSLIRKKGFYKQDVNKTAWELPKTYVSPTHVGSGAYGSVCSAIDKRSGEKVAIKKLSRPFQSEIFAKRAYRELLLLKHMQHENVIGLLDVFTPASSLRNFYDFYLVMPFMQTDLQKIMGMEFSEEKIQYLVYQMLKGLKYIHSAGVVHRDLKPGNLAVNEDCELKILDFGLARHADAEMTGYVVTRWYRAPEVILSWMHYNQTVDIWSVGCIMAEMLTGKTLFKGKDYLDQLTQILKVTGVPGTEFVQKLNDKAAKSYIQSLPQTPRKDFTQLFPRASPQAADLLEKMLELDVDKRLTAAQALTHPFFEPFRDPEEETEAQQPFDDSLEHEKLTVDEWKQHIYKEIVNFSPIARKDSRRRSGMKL
Sequence of MKK1 (Q02750 whole entry, species assumed): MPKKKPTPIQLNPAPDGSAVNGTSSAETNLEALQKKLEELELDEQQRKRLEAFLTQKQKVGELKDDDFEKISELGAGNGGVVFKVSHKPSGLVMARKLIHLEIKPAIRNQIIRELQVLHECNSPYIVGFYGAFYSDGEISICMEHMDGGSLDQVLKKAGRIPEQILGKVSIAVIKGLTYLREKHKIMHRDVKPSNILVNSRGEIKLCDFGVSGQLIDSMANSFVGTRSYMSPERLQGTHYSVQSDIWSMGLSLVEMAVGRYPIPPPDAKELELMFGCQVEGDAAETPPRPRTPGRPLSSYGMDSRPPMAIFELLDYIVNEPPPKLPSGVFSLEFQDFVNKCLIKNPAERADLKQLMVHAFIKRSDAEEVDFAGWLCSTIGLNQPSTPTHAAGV
Sequence of PKBΔPH (P31749 118-480 limits assumed, stated change not applied): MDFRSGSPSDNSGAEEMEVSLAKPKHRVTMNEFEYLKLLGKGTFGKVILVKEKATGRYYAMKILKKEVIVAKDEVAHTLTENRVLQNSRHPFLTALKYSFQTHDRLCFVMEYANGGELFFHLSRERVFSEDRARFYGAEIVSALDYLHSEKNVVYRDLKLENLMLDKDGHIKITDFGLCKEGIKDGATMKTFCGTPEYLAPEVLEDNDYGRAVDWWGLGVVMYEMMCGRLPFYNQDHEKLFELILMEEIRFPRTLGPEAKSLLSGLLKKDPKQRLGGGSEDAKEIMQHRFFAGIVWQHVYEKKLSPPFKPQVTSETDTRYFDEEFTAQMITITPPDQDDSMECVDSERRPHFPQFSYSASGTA
Sequence of SAPK2β/p38β2 (Q15759 whole entry): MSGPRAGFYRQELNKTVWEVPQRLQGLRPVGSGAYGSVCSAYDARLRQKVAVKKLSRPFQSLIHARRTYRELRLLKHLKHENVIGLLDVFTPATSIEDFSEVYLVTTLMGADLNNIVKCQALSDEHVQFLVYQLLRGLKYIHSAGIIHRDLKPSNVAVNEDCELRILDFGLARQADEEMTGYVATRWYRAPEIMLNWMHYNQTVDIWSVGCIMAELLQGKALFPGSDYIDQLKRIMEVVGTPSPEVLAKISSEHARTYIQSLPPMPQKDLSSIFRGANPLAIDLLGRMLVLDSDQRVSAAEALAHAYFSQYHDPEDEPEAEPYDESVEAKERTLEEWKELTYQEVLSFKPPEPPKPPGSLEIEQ
Sequence of SGK1 (O00141 whole entry): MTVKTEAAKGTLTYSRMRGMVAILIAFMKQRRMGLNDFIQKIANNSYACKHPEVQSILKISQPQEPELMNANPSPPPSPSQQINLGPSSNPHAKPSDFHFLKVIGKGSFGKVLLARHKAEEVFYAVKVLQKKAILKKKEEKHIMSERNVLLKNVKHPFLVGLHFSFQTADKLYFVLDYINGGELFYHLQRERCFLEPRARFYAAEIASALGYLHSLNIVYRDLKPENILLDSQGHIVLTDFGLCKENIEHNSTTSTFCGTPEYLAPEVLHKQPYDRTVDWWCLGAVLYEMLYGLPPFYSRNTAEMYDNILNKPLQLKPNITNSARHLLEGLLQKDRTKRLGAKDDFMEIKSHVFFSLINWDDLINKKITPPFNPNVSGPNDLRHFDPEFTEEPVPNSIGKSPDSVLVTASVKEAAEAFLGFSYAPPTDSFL
Sequence of PRAK (Q8IW41 whole entry, species assumed): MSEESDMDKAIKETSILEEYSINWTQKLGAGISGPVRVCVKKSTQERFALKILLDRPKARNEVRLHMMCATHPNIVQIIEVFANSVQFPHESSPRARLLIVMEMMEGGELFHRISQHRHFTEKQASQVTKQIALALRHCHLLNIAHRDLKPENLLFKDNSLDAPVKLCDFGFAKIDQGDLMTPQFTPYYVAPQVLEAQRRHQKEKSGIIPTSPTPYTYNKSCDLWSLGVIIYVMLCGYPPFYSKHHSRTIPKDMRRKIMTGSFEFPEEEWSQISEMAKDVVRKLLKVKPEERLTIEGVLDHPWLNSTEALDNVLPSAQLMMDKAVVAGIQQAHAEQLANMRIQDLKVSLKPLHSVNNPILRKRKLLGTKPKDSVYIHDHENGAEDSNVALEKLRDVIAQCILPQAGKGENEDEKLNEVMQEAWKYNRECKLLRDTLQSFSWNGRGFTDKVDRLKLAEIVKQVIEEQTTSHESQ
Sequence of CK2 (P68400 whole entry): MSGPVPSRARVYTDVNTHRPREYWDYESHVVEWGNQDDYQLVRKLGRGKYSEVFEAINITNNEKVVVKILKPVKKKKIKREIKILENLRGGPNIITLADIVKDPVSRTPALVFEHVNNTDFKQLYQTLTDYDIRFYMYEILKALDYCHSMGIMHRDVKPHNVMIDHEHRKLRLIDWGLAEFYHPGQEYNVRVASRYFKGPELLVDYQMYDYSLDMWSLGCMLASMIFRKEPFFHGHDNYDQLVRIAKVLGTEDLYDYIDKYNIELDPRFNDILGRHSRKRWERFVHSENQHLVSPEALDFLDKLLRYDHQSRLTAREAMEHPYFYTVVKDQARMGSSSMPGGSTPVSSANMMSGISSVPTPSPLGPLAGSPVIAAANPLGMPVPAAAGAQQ
Sequence of SAPK2α/p38 (Q16539 whole entry): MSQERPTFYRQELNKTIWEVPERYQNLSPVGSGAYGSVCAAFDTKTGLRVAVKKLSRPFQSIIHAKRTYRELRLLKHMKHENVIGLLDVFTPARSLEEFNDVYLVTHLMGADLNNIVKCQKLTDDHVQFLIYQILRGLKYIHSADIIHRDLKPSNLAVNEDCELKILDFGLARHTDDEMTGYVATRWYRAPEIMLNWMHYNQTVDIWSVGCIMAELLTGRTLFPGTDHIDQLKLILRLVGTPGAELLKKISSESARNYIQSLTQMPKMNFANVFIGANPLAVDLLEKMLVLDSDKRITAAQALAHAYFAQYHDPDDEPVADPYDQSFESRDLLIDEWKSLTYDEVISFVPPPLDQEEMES
Sequence of NEK6 (Q9HC98 whole entry, species assumed, the tested form may be a part): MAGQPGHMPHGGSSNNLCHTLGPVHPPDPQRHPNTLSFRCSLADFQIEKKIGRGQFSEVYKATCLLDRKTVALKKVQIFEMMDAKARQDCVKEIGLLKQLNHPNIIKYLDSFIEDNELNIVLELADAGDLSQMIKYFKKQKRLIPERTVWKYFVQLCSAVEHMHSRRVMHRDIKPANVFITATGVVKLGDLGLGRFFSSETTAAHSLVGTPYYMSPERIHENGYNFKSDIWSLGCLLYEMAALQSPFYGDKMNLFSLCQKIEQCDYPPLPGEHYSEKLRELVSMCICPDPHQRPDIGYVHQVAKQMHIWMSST

In [1], “wild type PDK1 fused through its N-terminus to glutathione S-transferase (GST-PDK1) (from UniProt O15530 1-556) (enzyme)” had a fold lower affinity than for PIFtide of 100 fold. The same molecule displayed a time taken for 50% dissociation in [2] of 30 s. The Kd in [3] stood at 600 nM; in assay [4], 642 nM.
For “GST-PDK1[T148A] (from UniProt O15530 1-556) (enzyme)”, the fold higher affinity than wild type PDK1 in assay [5] came out at 10 fold. Moreover, the Kd amounted to 60 nM in assay [3] and 64 nM in assay [4]. The molecule also came in with an RUmax in [6] of 435 RU.
Turning to `CN[C@@H]1C[C@H]2O[C@@](C)([C@@H]1OC)n1c3ccccc3c3c4c(c5c6ccccc6n2c5c31)C(=O)NC4` [STO, staurosporine], the “percentage of kinase activity compared to control incubations, PDK1” value on PDK1 was 5 ± 1%. Besides, the “percentage of kinase activity compared to control incubations, CHK1” value on CHK1 was 3 ± 1%. Moreover, in the assay on AMPK, the “percentage of kinase activity compared to control incubations, AMPK” value was 0 ± 0%. Also, the remaining activity at 1 µM at PKBΔPH stood at 8 ± 2%. The “percentage of kinase activity compared to control incubations, ROCK-II” value at ROCK-II worked out at 9 ± 5%. Moreover, the “percentage of kinase activity compared to control incubations, MSK1” value is listed as 1 ± 0% at MSK1 and “abolished” at MSK1 (listed as staurosporine). In addition, the “percentage of kinase activity compared to control incubations, MKK1” value at MKK1 came to 5 ± 8%. In addition, the “percentage of kinase activity compared to control incubations, CSK” value on CSK was found to be 25 ± 8%. Further, at SAPK4/p38δ, the “percentage of kinase activity compared to control incubations, SAPK4/p38δ” value is 40 ± 5%. Further, the “percentage of kinase activity compared to control incubations, PRAK” value on PRAK came to 48 ± 1%. Moreover, the “percentage of kinase activity compared to control incubations, MAPKAP-K1a” value on MAPKAP-K1a was found to be 18 ± 10%. In addition, the “percentage of kinase activity compared to control incubations, SGK1” value on SGK1 is 51 ± 4%. Further, the “percentage of kinase activity compared to control incubations, JNKSAPK1c” value on JNKSAPK1c stood at 91 ± 3%. Also, the “percentage of kinase activity compared to control incubations, SAPK2α/p38” value at SAPK2α/p38 turned out to be 76 ± 4%. Moreover, the “percentage of kinase activity compared to control incubations, SAPK2β/p38β2” value at SAPK2β/p38β2 is on record as 84 ± 11%. Moreover, the “percentage of kinase activity compared to control incubations, CK2” value on CK2 is reported as 95 ± 4%. Further, the “percentage of kinase activity compared to control incubations, CK1” value in the assay on CK1 is recorded as 95 ± 11%. On NEK6, the “percentage of kinase activity compared to control incubations, NEK6” value is on record as 109 ± 2%.

B1: S6K-HM, non-phosphorylated peptide comprising the hydrophobic motif of S6K1 (peptide)
peptide: SESANQVFLGFTYVAPSV
modifications: also: biotinylated in BiaCore assay
notes: also called 56K-HM
Turning to B1, the “activation of PDK1 activity towards T308tide” value in assay [7] is < 2 fold. Besides, the binding result in [8] is given as “no binding (tested: 2-2150 nM)”.

B2: S6K-pHM, phosphopeptide comprising the hydrophobic motif of S6K1 (peptide)
peptide: SESANQVFLGF[pT]YVAPSV
modifications: not fully specified; printed as SESANQVFLGFT*YVAPSV
Take B2: in assay [7], the “maximal activation of PDK1 activity towards T308tide” value amounted to 5 fold. Besides, the concentration of S6K-pHM for half maximal activation, against wild type PDK1 (fold higher than wild type PDK1) in [9] was determined as 3. Further, the activation of PDK1 activity towards T308tide in [10] is 2 fold and 3 fold.
